Experimental data from ChEMBL document CHEMBL5726955, “Substituted boronic acids and boronate esters as immunoproteasome inhibitors” (2019).
pIC50: −log10 of the molar value.

Target: T1, Proteasome Macropain subunit MB1 (Homo sapiens, UniProt P28074)
T1 sequence (P28074 whole entry): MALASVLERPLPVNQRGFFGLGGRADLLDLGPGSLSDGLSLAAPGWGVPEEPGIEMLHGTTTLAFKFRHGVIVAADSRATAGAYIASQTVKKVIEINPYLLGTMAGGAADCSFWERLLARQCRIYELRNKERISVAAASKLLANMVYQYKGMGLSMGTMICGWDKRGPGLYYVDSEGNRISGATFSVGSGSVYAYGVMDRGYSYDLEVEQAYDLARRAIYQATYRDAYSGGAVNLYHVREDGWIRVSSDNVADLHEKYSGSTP
Assay: Determination of Beta5 Activity: Measurement of Beta5 inhibition is performed in 384 well format based on fluorescence intensity assay.Purified human constitutive proteasome (1.25 nM) and serial diluted compounds in DMSO (range of concentrations from 30 μM to […]) or controls are incubated for 20 minutes at 25° C. in assay buffer containing 50 mM Tris pH 7.4, 0.03% SDS, 1 mM EDTA and 1% DMSO. The reaction is initiated by the addition of the fluorogenic peptide substrate, Suc-LLVY-AMC (Bachem 1-1395), at a concentration of 40 μM. After 60 minutes of incubation at 37° C., fluorescence intensity is measured at λex=350 nm and λem=450 nm with a fluorescence reader (Perkin Elmer Envision reader or equivalent).

Row | SMILES | pIC50
1 | Cc1ccc(OCCC(=O)N[C@@H](Cc2coc3ccccc23)B(O)O)cc1 | > 7.30
2 | CCO[C@@H](C(=O)N[C@@H](Cc1coc2ccccc12)B(O)O)c1ccccc1 | < 5.30
